According to PubChem BioAssay (NCI):
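In this assay, cells in 96-well plates receive the compound at five concentrations for 48 hours. Endpoints are linearly interpolated between the surrounding concentrations. Abbreviation: GI50, concentration required for 50% inhibition of growth. TGI is the concentration that stops growth completely.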

Assays:
Assay in all cases: NCI tumour cell line growth inhibition, 48 h
[1] = system: HCC-2998 colon
[2] = system: ACHN renal
[3] = system: OVCAR-4 ovarian
[4] = system: MOLT-4 leukemia
[5] = system: SN12C renal
[6] = system: NCI-H226 lung
[7] = system: 786-0 renal
[8] = system: SK-MEL-28 melanoma
[9] = system: U251 CNS
[10] = system: PC-3 prostate

N/N=C(\Cc1ccccc1)NN=C(N)N
TGI [1]: > 100 µM | TGI [2]: > 100 µM | TGI [3]: > 100 µM | TGI [4]: > 100 µM | TGI [5]: > 100 µM | TGI [6]: > 100 µM | TGI [7]: > 100 µM | TGI [8]: > 100 µM | TGI [9]: > 100 µM

CC(C)(Br)C(=O)/C=C/c1ccccc1
TGI [10]: 33.7 µM | TGI [2]: 6.74 µM | TGI [3]: 5.58 µM | TGI [4]: > 43.7 µM | TGI [5]: 22.5 µM | TGI [6]: 24 µM | TGI [7]: 2.22 µM | TGI [8]: 28.9 µM | TGI [9]: 20.5 µM

O=C(Nc1cc(Cl)c(Cl)cc1Cl)C(=O)C(C(=O)c1ccc(Cl)c(Cl)c1)C1OC(=O)c2ccccc21 (stereo not drawn)
TGI [1]: 33.6 µM | TGI [2]: 31.7 µM | TGI [3]: 77.8 µM | TGI [4]: > 100 µM | TGI [5]: 52.3 µM | TGI [6]: 22.7 µM | TGI [7]: 27.3 µM | TGI [9]: 30.9 µM

O=C(Nc1ccc2c(c1)oc(=O)c1ccccc12)C(Cl)Cl
TGI [1]: > 100 µM | TGI [10]: > 100 µM | TGI [2]: > 100 µM | TGI [4]: > 100 µM | TGI [5]: > 100 µM | TGI [6]: > 100 µM | TGI [7]: > 100 µM | TGI [8]: > 100 µM | TGI [9]: > 100 µM

O=C1CCC2(c3ccccc3)Nc3cc(Cl)ccc3N12 (stereo not drawn)
TGI [1]: > 100 µM | TGI [2]: 96.1 µM | TGI [3]: > 100 µM | TGI [4]: 57.9 µM | TGI [5]: > 100 µM | TGI [6]: 65.1 µM | TGI [7]: > 100 µM | TGI [8]: > 100 µM | TGI [9]: > 100 µM

Cc1cccc(C)c1NC(=O)CCCC(=O)C1CCC/C1=N\NC(=O)C(=O)NN (stereo not drawn)
TGI [1]: > 100 µM | TGI [2]: > 100 µM | TGI [3]: > 100 µM | TGI [4]: > 100 µM | TGI [5]: > 100 µM | TGI [6]: > 100 µM | TGI [7]: > 100 µM | TGI [8]: > 100 µM | TGI [9]: > 100 µM

CCC1CN2CCc3cc(OC)c(OC)cc3C2CC1CC1c2cc(OC)c(OC)cc2CCN1C(=O)CNC(=O)OC(C)(C)C (stereo not drawn)
TGI [1]: 12.3 µM | TGI [2]: 54.4 µM | TGI [3]: 7.98 µM | TGI [4]: 23.1 µM | TGI [5]: 90 µM | TGI [6]: 53 µM | TGI [7]: 21.2 µM | TGI [8]: 61 µM | TGI [9]: > 100 µM

Cc1c2ccncc2c(C)c2c1[nH]c1ccc(OC(C)(C)C)cc12
TGI [1]: 3.78 µM | TGI [3]: 4.21 µM | TGI [4]: 4.66 µM | TGI [6]: 14.8 µM | TGI [7]: 2.96 µM | TGI [8]: 3.77 µM | TGI [9]: 10.1 µM

O=C1c2ccccc2C(=O)C1C(c1ccc([N+](=O)[O-])cc1)C1C(=O)c2ccccc2C1=O
TGI [1]: > 100 µM | TGI [2]: > 100 µM | TGI [3]: > 100 µM | TGI [4]: > 100 µM | TGI [5]: > 100 µM | TGI [6]: > 100 µM | TGI [7]: > 100 µM | TGI [8]: 93.6 µM | TGI [9]: > 100 µM

CC(=O)NC(CCCN(Cc1ccccc1)C(=O)N(CCCl)N=O)C(=O)NCc1ccccc1 (stereo not drawn)
TGI [1]: > 100 µM | TGI [2]: > 96.3 µM | TGI [3]: > 100 µM | TGI [4]: 97.5 µM | TGI [5]: > 100 µM | TGI [6]: > 94.2 µM | TGI [7]: > 58.7 µM | TGI [8]: > 100 µM | TGI [9]: > 100 µM

CCOC(=O)N1C2C=C(C)C(C3C(C)C(=O)N31)N(C(=O)c1ccccc1)O2 (stereo not drawn)
TGI [1]: > 100 µM | TGI [2]: > 100 µM | TGI [3]: > 100 µM | TGI [4]: > 100 µM | TGI [5]: > 100 µM | TGI [6]: > 100 µM | TGI [7]: > 100 µM | TGI [8]: > 100 µM | TGI [9]: > 100 µM

FC(F)(F)c1ccc2nc(Nc3ccc(Cl)c(Cl)c3)c(-c3ccccc3)nc2c1
TGI [1]: > 100 µM | TGI [2]: > 100 µM | TGI [4]: > 100 µM | TGI [5]: > 100 µM | TGI [6]: > 100 µM | TGI [7]: > 100 µM | TGI [8]: > 100 µM | TGI [9]: > 100 µM

COc1ccc2c(C(=O)O)cc3cc(OC)c(OC)cc3c2c1
TGI [1]: > 100 µM | TGI [2]: > 100 µM | TGI [4]: > 100 µM | TGI [5]: > 100 µM | TGI [6]: > 100 µM | TGI [7]: > 100 µM | TGI [8]: > 100 µM | TGI [9]: > 100 µM

CN(C)C(=O)C1CCC(=C2C(=O)OC(C)(C)OC2=O)N1C (stereo not drawn)
TGI [1]: > 100 µM | TGI [2]: > 100 µM | TGI [3]: > 100 µM | TGI [4]: > 100 µM | TGI [5]: > 100 µM | TGI [6]: > 100 µM | TGI [7]: > 100 µM | TGI [8]: > 100 µM | TGI [9]: > 100 µM

COC(=O)C(=O)C(C(=O)C=C(C)C)C(=O)C(=O)Nc1cccc(C(C)=O)c1 (stereo not drawn)
TGI [1]: > 100 µM | TGI [2]: > 100 µM | TGI [3]: > 100 µM | TGI [4]: > 100 µM | TGI [5]: > 100 µM | TGI [6]: > 100 µM | TGI [7]: > 100 µM | TGI [8]: > 100 µM | TGI [9]: > 100 µM

COc1cc(Oc2c(O)c(C)c(OC)c(C(C)=O)c2O)c(C(C)=O)c(O)c1C
TGI [1]: > 100 µM | TGI [2]: > 100 µM | TGI [3]: > 100 µM | TGI [5]: > 100 µM | TGI [6]: > 100 µM | TGI [7]: > 100 µM | TGI [8]: > 100 µM | TGI [9]: > 100 µM

CC(=O)Oc1ccccc1C(=O)C1c2cccc(O)c2C(=O)c2c(O)cccc21
TGI [1]: 6.5 µM | TGI [2]: 3.45 µM | TGI [3]: 4.48 µM | TGI [4]: 6.01 µM | TGI [5]: 12.1 µM | TGI [6]: 3.7 µM | TGI [7]: 3.98 µM | TGI [8]: 7.14 µM | TGI [9]: 1.99 µM

COc1ccc(COCC(Cn2ccnc2)OCc2ccc(C(=O)O)cc2)cc1 (stereo not drawn)
TGI [1]: > 100 µM | TGI [2]: > 100 µM | TGI [3]: > 100 µM | TGI [4]: > 100 µM | TGI [5]: > 100 µM | TGI [6]: > 100 µM | TGI [7]: > 100 µM | TGI [8]: > 100 µM | TGI [9]: > 100 µM

O=c1[nH]cc(OCC(F)(F)F)c(=O)[nH]1
TGI [1]: > 100 µM | TGI [2]: > 100 µM | TGI [3]: > 100 µM | TGI [4]: > 100 µM | TGI [5]: > 100 µM | TGI [7]: > 100 µM | TGI [8]: > 100 µM | TGI [9]: > 100 µM

CN(C)CCNC(=O)c1ccc(Cl)c2c(Nc3ccc(S(N)(=O)=O)cc3)c3ccccc3nc12
TGI [1]: 14.8 µM | TGI [2]: 10.9 µM | TGI [3]: 6.22 µM | TGI [5]: 10.1 µM | TGI [6]: 4.56 µM | TGI [7]: 9.2 µM | TGI [8]: 9.38 µM | TGI [9]: 14.1 µM

FC(F)(F)C12C34C=CC5(CCC6(C=CC1(CC3)O6)C52C(F)(F)F)O4 (stereo not drawn)
TGI [1]: > 100 µM | TGI [2]: > 100 µM | TGI [3]: > 100 µM | TGI [4]: > 100 µM | TGI [5]: > 100 µM | TGI [6]: > 100 µM | TGI [7]: > 100 µM | TGI [8]: > 100 µM | TGI [9]: > 100 µM

Cc1cn2c(/C=N/N/C(N)=N\N)c(-c3ccc(Cl)c([N+](=O)[O-])c3)nc2s1
GI50 [10]: 9.95 µM | TGI [10]: 24.8 µM | GI50 [2]: 0.928 µM | TGI [2]: 1.63 µM | GI50 [5]: 1.27 µM | TGI [5]: 4.09 µM | GI50 [7]: 0.859 µM | TGI [7]: 1.73 µM | GI50 [9]: 0.914 µM | TGI [9]: 1.63 µM

O=C1C(=O)N(C2C3CC4CC(C3)CC2C4)C(=O)C(=O)C1c1nc2ccccc2o1 (stereo not drawn)
TGI [1]: > 100 µM | TGI [2]: > 100 µM | TGI [3]: > 100 µM | TGI [5]: > 100 µM | TGI [6]: > 100 µM | TGI [7]: > 100 µM | TGI [8]: > 100 µM | TGI [9]: > 100 µM

CC(C)=CC(=O)CC(=O)C(=O)Nc1ccc(Cl)c(Cl)c1
TGI [1]: > 100 µM | TGI [2]: > 100 µM | TGI [3]: > 100 µM | TGI [4]: > 100 µM | TGI [5]: > 100 µM | TGI [6]: > 100 µM | TGI [7]: > 100 µM | TGI [8]: > 100 µM | TGI [9]: > 100 µM
